We go through one compound from US20090232761A1, “Use of a Composition Comprising Pentane-1, 5-Diol as Deodorant” (priority 2005, published 2009).

A short description of the assay: Napkin sprayed with pentane-1,5-diol solution, dried, used to remove urine; smell assessed. Details: species or system human being. To be noted: active solutions containing 10% (v/v) and 30% (v/v) sprayed onto disposable napkin, dried at room temperature; control water alone. The source says: Active solutions containing 10% (v/v) and 30% (v/v) pentane-1,5-diol were sprayed onto a disposable napkin until the complete area of the napkin was moistened. The napkin was left at room temperature until the napkin was dry. The napkin was then used to remove urine from a human being. […] As a control was water used alone. The same amount of water and the active solution were used.

Structures are written as SMILES.

For `OCCCCCO` [pentane-1,5-diol], the “smell of urine from the napkin” value is recorded as “no smell of urine”.
